Patent publication US11332712B2, “Cell culture media and method for culturing breast cancer cells” (UNIVERSITY OF MIAMI, priority 2013, dated 2022)
“Also recorded” adds a separate entry of the source.

Assays:
[1] = tested on: human breast tumor cells; assay: Culture of human breast tumor cells, effect of medium components (Example 1); type: cell-based; conditions: preliminary experiments; compared to Retinol
Protocol: The base WIT cell culture medium contains 0.1 mg/L Calciferol (vitamin D2) and this medium is supplemented with 2-5% fetal bovine serum (FBS) to culture human ovarian carcinoma cells (WIT-OC medium). It was hypothesized that both of these components should be removed from the cell culture medium for the successful culture of human breast cancer cells because FBS contains vitamins and hormones such as vitamin D and androgens. […] Thus, charcoal stripped fetal bovine serum (csFBS) was utilized to culture breast tumor cells because activated carbon removes non-polar material such as lipophilic (lipid-related) materials (virus, certain growth factors, hormones and cytokines) regardless of molecular weight but has little effect on salts, glucose, amino acids, etc. The WIT-OC medium also contained vitamin A acetate (Retinol) which is a weaker form of vitamin A, compared to all-trans-retinoic acid (ATRA).
Thus, in order to formulate a cell culture medium optimized to culture human breast tumor cells, as opposed to ovarian tumors, and other tumors, a WIT cell culture medium was prepared without any vitamin D, vitamin A, or androgens, and this medium was supplemented 100 nM ATRA, and 0.5-2% charcoal stripped fetal bovine serum (csFBS). We refer to this medium as WIT-BC, or WIT-BCe when estrogen is added.

[2] = tested on: breast cancer cell lines (T47D, ZR751, MCF7 and BT474); assay: Breast cancer cell line proliferation assay with and without AR agonist (FIG. 8), trypan blue/Cellometer count; type: cell-based; conditions: 10 nM with 17 beta-Estradiol (10 nM), phenol-red free DMEM with 5% csFBS, 4 days
Protocol: Four different breast cancer cell lines (T47D, ZR751, MCF7 and BT474) were cultured both with and without AR agonist […]. […] After 3 days, an AR agonist R1881 (10 nM) and 17 beta-Estradiol (10 nM) were added to the media. […] All the conditions were carried out in triplicate and the experiments were repeated at least twice.

| SMILES | effect on growth/culture of breast tumor cells [1] | effect on breast cancer cell proliferation [2] |
| --- | --- | --- |
| CC1=C(/C=C/C(C)=C/C=C/C(C)=C/C(=O)O)C(C)(C)CCC1 [ATRA, all-trans-retinoic acid] | promoting the growth of the breast tumor cells; also recorded: needed for the optimum culture |  |
| C[C@]1(O)CC[C@H]2[C@@H]3CCC4=CC(=O)CCC4=C3C=C[C@@]21C [R1881, methyltrienolone] |  | inhibitory effect |
